Results on one compound are retold here after patent US20230356105A1, “TETRAAZADODECANE BASED CHELATING AGENTS FOR SEPARATION OF RARE EARTH ELEMENTS AND METHOD THEREFOR” (Ustav Organicke Chemie a Biochemie AV CR V.V.I., priority 2020, published 2023).

Data set [1] in a line: Use of additives to improve separation of Nd/Dy mixture by precipitation with L5 (Example 18). The format is physicochemical. The conditions noted are these: 11 mM L5. An outline of the steps:
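Mixtures held 5 mM NdCl3, 5 mM DyCl3 and 500 mM MOPS pH 7 with L5, plus additives at variable concentration adjusted to pH 7. Stirred 18 h in sealed cuvettes, then centrifuged; precipitate redissolved in 1 M HCl. Nd and Dy measured in supernatant and precipitate by ICP-OES.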

Data set [2] is described as follows: Removal of additive from remaining solution after precipitation by ultrafiltration (Example 25). The format is physicochemical. As to conditions: initial [additive] 30.4 mM.

Take `CC(C)(O)C(=O)O` [α-HIBA, alpha-hydroxyisobutyric acid]: in data set [1] (additive 5 mM), the “Precipitate concentration [mM] Dy” value came out at 2.59 mM, the “Precipitate concentration [mM] Nd” value was 4.32 mM, the “Supernatant concentration [mM] Dy” value is given as 1.55 mM and the “Supernatant concentration [mM] Nd” value is 0.10 mM. Further, in data set [1] (additive 10 mM), the “Precipitate concentration [mM] Dy” value worked out at 1.50 mM, the “Precipitate concentration [mM] Nd” value was 4.03 mM, the “Supernatant concentration [mM] Dy” value is listed as 3.03 mM and the “Supernatant concentration [mM] Nd” value turned out to be 0.19 mM. Besides, in data set [1] (additive 15 mM), the “Precipitate concentration [mM] Dy” value is 1.18 mM, the “Precipitate concentration [mM] Nd” value amounted to 4.33 mM, the “Supernatant concentration [mM] Dy” value was 3.37 mM and the “Supernatant concentration [mM] Nd” value amounted to 0.33 mM. In data set [1] (additive 20 mM), the “Precipitate concentration [mM] Dy” value is 0.81 mM, the “Precipitate concentration [mM] Nd” value is recorded as 3.78 mM, the “Supernatant concentration [mM] Dy” value came to 3.69 mM and the “Supernatant concentration [mM] Nd” value came out at 0.60 mM. Further, the “% of initial [additive] in filtrate” value in data set [2] is 3%.
